The values that follow come from ChEMBL document CHEMBL3886525, “Pyrazolo[3,4-c]pyridine compounds and methods of use” (2016).

The target of the experiment is Serine/threonine-protein kinase pim-1 (Homo sapiens, UniProt P11309). Description: A fluorescent-labeled Pim-specific peptide substrate, was custom synthesized by American Peptide Company (Sunnyvale, Calif.). Reaction Buffer contained 10 mM HEPES, pH 7.2, 10 mM MgCl2, 0.01% Tween 20, 2 mM DTT.
Serine/threonine-protein kinase pim-1, sequence (P11309 whole entry): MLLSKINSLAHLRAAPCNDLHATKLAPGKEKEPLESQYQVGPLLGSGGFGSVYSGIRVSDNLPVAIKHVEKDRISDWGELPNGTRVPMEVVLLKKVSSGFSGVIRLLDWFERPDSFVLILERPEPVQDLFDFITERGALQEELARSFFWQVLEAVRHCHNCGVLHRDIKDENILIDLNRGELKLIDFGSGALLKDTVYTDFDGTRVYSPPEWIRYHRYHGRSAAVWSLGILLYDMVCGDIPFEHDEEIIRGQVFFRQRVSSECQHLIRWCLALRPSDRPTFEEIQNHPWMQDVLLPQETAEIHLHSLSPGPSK

Usually Ki stands for a measure of affinity in units of concentration, obtained from inhibition or displacement. Compound `Fc1ccccc1-c1n[nH]c2cnc(-c3cccnc3)cc12` gave an inhibition constant Ki of 122 nM.

Compound `c1cncc(-c2cc3c(-c4cccc(N5CCOCC5)n4)n[nH]c3cn2)c1` showed a Ki of 0.262 nM.

`CCn1cc(-c2cc3c(-c4ccc(=O)n(CC5(C(N)=O)CC5)c4)n[nH]c3cn2)cn1` came in with a Ki of 1.41 nM.

With `c1ccc(-c2n[nH]c3cnc(-c4cccnc4)cc23)cc1`, the affinity corresponds to a Ki of 9.65 nM.

Consider `c1cncc(-c2cc3c(-c4cccc(N5CCCCC5)n4)n[nH]c3cn2)c1`, for which affinity was put at a Ki of 0.415 nM.

Compound `Cc1n[nH]c2cnc(-c3cccc(F)c3)cc12` returned a Ki of 2200 nM.

Compound `N[C@@H]1CCN(c2nc(-c3n[nH]c4cnc(-c5cccnc5)cc34)ccc2Br)C1` yielded a Ki of 0.118 nM.
